In US20250346592A1 (Celgene Corporation, priority 2022, published 2025):

Molecular target: hPAD4 enzyme (Homo sapiens (Human), UniProt Q9UM07)
Assay: RFMS2 assay (RapidFire mass spectrometry, TSTGGRQGSHH peptide substrate)
Type: biochemical
Details: 35 nM recombinant human PAD4, 500 μM TSTGGRQGSHH peptide, 30 minutes at room temperature; read-out: RFMS 2 IC50
Experimental: Stock compounds were dissolved and stored in 100% DMSO. Compound solutions were prepared via serial dilution at 3-fold intervals in DMSO with top compound concentration at 20 μM in each assay. 0.25 μl of compound solution was transferred from the compound plate to the assay plate by using an acoustic dispenser.
• Total reaction volume: 25 μl • Assay buffer: […] pH 7.4, 200 mM NaCl, 2 mM CaCl2, 5 mM DTT • 35 nM recombinant human PAD4 • 500 μM TSTGGRQGSHH peptide • 1.2% DMSO • Stop solution: 10% formic acid
Reaction mixtures were incubated at room temperature for 30 minutes. 10 μl each of the reaction mixtures was then mixed with 40 μl of 10% formic acid in a microtiter plate. The plate was frozen at −80° C. before shipping out on dry ice for RapidFire mass spectroscopy analysis.
Thawed samples were loaded onto the Rapid Fire 300 system (Agilent) wherein they were first sipped for 250 ms and then loaded onto a Agilent “C” (C18) cartridge using a mobile phase of water containing 0.09% formic acid/0.01% trifluoroacetic acid for 3000 ms desalting flowing at a rate of 1.5 ml/min. Once the samples were loaded and washed, a mobile phase of acetonitrile containing 0.09% formic acid/0.01% trifluoroacetic acid was used to elute the samples directly onto a Sciex API4000 triple quadrupole mass spectrometer for 3000 ms at a flow rate of 1.25 ml/min.
MRM transitions for substrate and product were monitored in positive ESI mode at m/z=562.3/969.7 and m/z=562.8/541.3 respectively. The dwell time for each transition was set at 100 ms, and the ESI voltage was used at 5500 with a source temperature of 650° C. Extracted ion peaks for each transition were integrated using the Rapid Fire Integrator software.
Compounds having an activity designated as “A” provided an IC50≤10 nM; compounds having an activity designated as “B” provided an IC50 11-100 nM; compounds having an activity designated as “C” provided an IC50 101-500 nM; compounds having an activity designated as “D” provided an IC50 501-1000 nM; compounds having an activity designated as “E” provided an IC50>1000 nM.

Sequence of hPAD4 enzyme (Q9UM07 whole entry): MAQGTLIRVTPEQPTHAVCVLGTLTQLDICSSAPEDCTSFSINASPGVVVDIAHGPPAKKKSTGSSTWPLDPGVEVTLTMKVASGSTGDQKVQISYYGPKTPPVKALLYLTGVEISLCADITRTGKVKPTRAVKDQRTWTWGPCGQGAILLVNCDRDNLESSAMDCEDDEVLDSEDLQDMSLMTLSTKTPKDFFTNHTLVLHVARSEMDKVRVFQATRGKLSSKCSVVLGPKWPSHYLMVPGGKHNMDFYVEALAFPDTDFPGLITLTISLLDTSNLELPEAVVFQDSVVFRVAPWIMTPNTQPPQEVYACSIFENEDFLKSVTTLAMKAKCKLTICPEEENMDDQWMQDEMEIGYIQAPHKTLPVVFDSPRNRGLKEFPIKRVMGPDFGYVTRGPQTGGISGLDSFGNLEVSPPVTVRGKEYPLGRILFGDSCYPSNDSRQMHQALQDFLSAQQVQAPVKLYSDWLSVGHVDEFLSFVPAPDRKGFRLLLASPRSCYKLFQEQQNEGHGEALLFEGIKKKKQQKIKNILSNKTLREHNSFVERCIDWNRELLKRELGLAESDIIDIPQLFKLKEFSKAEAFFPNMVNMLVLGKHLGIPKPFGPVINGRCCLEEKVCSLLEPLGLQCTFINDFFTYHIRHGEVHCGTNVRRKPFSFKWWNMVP

SMILES	IC50 [µM]
C[C@@H](N)CN1CCc2cc3c(cc2C1=O)nc(-c1cc2ccc(C#N)cc2n1CC1CC1)n3C [Example 32]	0.101 to 0.5
C[C@@H](N)CN1CCc2cc3c(cc2C1=O)nc(-c1cc2cccc(Cl)c2n1CC1CC1)n3C [Example 33, (R)-6-(2-aminopropyl)-2-(7-chloro-1-(cyclopropylmethyl)-1H-indol-2-yl)-1-methyl-1,6,7,8-tetrahydro-5H-imidazo[4,5-g]isoquinolin-5-one]	0.101 to 0.5
C[C@@H](N)CN1CCc2cc3c(cc2C1=O)nc(-c1cc2cc(Cl)ccc2n1CC1CC1)n3C [Example 34, (R)-6-(2-aminopropyl)-2-(5-chloro-1-(cyclopropylmethyl)-1H-indol-2-yl)-1-methyl-1,6,7,8-tetrahydro-5H-imidazo[4,5-g]isoquinolin-5-one]	0.501 to 1
C[C@@H](N)CN1CCc2cc3c(cc2C1=O)nc(-c1cc2cccc(C(F)(F)F)c2n1CC1CC1)n3C [Example 36, (R)-6-(2-aminopropyl)-2-(1-(cyclopropylmethyl)-7-(trifluoromethyl)-1H-indol-2-yl)-1-methyl-1,6,7,8-tetrahydro-5H-imidazo[4,5-g]isoquinolin-5-one]	0.501 to 1
CN[C@H](C)CN1CCc2cc3c(cc2C1=O)nc(-c1cc2cccc(OC)c2n1CC1CC1)n3C [Example 37, (R)-2-(1-(cyclopropylmethyl)-7-methoxy-1H-indol-2-yl)-1-methyl-6-(2-(methylamino)propyl)-1,6,7,8-tetrahydro-5H-imidazo[4,5-g]isoquinolin-5-one]	0.101 to 0.5
CC(C)c1ccc2cc(-c3nc4cc5c(cc4n3C)CCN(C[C@@H](C)N)C5=O)n(CC3CC3)c2c1 [Example 38, (R)-6-(2-aminopropyl)-2-(1-(cyclopropylmethyl)-6-isopropyl-1H-indol-2-yl)-1-methyl-1,6,7,8-tetrahydro-5H-imidazo[4,5-g]isoquinolin-5-one]	0.101 to 0.5
CCc1ccc2cc(-c3nc4cc5c(cc4n3C)CCN(C[C@@H](C)N)C5=O)n(CC3CC3)c2c1 [Example 39, (R)-6-(2-aminopropyl)-2-(1-(cyclopropylmethyl)-6-ethyl-1H-indol-2-yl)-1-methyl-1,6,7,8-tetrahydro-5H-imidazo[4,5-g]isoquinolin-5-one]	0.101 to 0.5
C[C@@H](N)CN1CCc2cc3c(cc2C1=O)nc(-c1cc2ccc(C4COC4)cc2n1CC1CC1)n3C [Example 42, (R)-6-(2-aminopropyl)-2-(1-(cyclopropylmethyl)-6-(oxetan-3-yl)-1H-indol-2-yl)-1-methyl-1,6,7,8-tetrahydro-5H-imidazo[4,5-g]isoquinolin-5-one]	0.501 to 1
C[C@@H](N)CN1CCc2cc3c(cc2C1=O)nc(-c1cc2ccc(Cl)nc2n1CC1CC1)n3C [Example 43, (R)-6-(2-aminopropyl)-2-(6-chloro-1-(cyclopropylmethyl)-1H-pyrrolo[2,3-b]pyridin-2-yl)-1-methyl-1,6,7,8-tetrahydro-5H-imidazo[4,5-g]isoquinolin-5-one]	0.101 to 0.5
COc1ccc2cc(-c3nc4cc5c(cc4n3C)CCN(C[C@@H](C)N)C5=O)n(CC3CC3)c2n1 [Example 44, (R)-6-(2-aminopropyl)-2-(1-(cyclopropylmethyl)-6-methoxy-1H-pyrrolo[2,3-b]pyridin-2-yl)-1-methyl-1,6,7,8-tetrahydro-5H-imidazo[4,5-g]isoquinolin-5-one]	0.101 to 0.5
C[C@@H](N)CN1CCc2cc3c(cc2C1=O)nc(-c1cc2ccc(=O)[nH]c2n1CC1CC1)n3C [Example 45, (R)-6-(2-aminopropyl)-2-(1-(cyclopropylmethyl)-6-oxo-6,7-dihydro-1H-pyrrolo[2,3-b]pyridin-2-yl)-1-methyl-1,6,7,8-tetrahydro-5H-imidazo[4,5-g]isoquinolin-5-one]	> 1
C[C@@H](N)CN1CCc2cc3c(cc2C1=O)nc(-c1c(F)c2ccccc2n1CC1CC1)n3C [Example 46, (R)-6-(2-aminopropyl)-2-(1-(cyclopropylmethyl)-3-fluoro-1H-indol-2-yl)-1-methyl-1,6,7,8-tetrahydro-5H-imidazo[4,5-g]isoquinolin-5-one]	0.501 to 1
Cc1ccc2cc(-c3nc4cc5c(cc4n3C)CCN(C[C@H](N)CF)C5=O)n(CC3CC3)c2c1 [Example 47, (S)-6-(2-amino-3-fluoropropyl)-2-(1-(cyclopropylmethyl)-6-methyl-1H-indol-2-yl)-1-methyl-1,6,7,8-tetrahydro-5H-imidazo[4,5-g]isoquinolin-5-one]	0.101 to 0.5
Cn1c(-c2cc3cccnc3n2CC2CC2)nc2cc3c(cc21)CCN(C[C@H](N)CF)C3=O [Example 49, (S)-6-(2-amino-3-fluoropropyl)-2-(1-(cyclopropylmethyl)-1H-pyrrolo[2,3-b]pyridin-2-yl)-1-methyl-1,6,7,8-tetrahydro-5H-imidazo[4,5-g]isoquinolin-5-one]	> 1
COc1ccc2cc(-c3nc4cc5c(cc4n3C)CCN(C[C@H](N)CF)C5=O)n(CC3CC3)c2c1 [Example 50, (S)-6-(2-amino-3-fluoropropyl)-2-(1-(cyclopropylmethyl)-6-methoxy-1H-indol-2-yl)-1-methyl-1,6,7,8-tetrahydro-5H-imidazo[4,5-g]isoquinolin-5-one]	0.101 to 0.5
CC(C)c1ccc2cc(-c3nc4cc5c(cc4n3C)CCN(C[C@H](N)CF)C5=O)n(CC3CC3)c2c1 [Example 51, (S)-6-(2-amino-3-fluoropropyl)-2-(1-(cyclopropylmethyl)-6-isopropyl-1H-indol-2-yl)-1-methyl-1,6,7,8-tetrahydro-5H-imidazo[4,5-g]isoquinolin-5-one]	0.101 to 0.5
Cn1c(-c2cc3ccncc3n2CC2CC2)nc2cc3c(cc21)CCN(C[C@H](N)CF)C3=O [Example 52, (S)-6-(2-amino-3-fluoropropyl)-2-(1-(cyclopropylmethyl)-1H-pyrrolo[2,3-c]pyridin-2-yl)-1-methyl-1,6,7,8-tetrahydro-5H-imidazo[4,5-g]isoquinolin-5-one]	> 1
COc1nccc2cc(-c3nc4cc5c(cc4n3C)CCN(C[C@H](N)CF)C5=O)n(CC3CC3)c12 [Example 54, (S)-6-(2-amino-3-fluoropropyl)-2-(1-(cyclopropylmethyl)-7-methoxy-1H-pyrrolo[2,3-c]pyridin-2-yl)-1-methyl-1,6,7,8-tetrahydro-5H-imidazo[4,5-g]isoquinolin-5-one]	0.501 to 1
Cn1c(-c2cc3ccc(C(C)(C)C)cc3n2CC2CC2)nc2cc3c(cc21)CCN(C[C@H](N)CF)C3=O [Example 55, (S)-6-(2-amino-3-fluoropropyl)-2-(6-(tert-butyl)-1-(cyclopropylmethyl)-1H-indol-2-yl)-1-methyl-1,6,7,8-tetrahydro-5H-imidazo[4,5-g]isoquinolin-5-one]	0.501 to 1
Cn1c(-c2cc3ccc(Cl)nc3n2CC2CC2)nc2cc3c(cc21)CCN(C[C@H](N)CF)C3=O [Example 56, (S)-6-(2-amino-3-fluoropropyl)-2-(6-chloro-1-(cyclopropylmethyl)-1H-pyrrolo[2,3-b]pyridin-2-yl)-1-methyl-1,6,7,8-tetrahydro-5H-imidazo[4,5-g]isoquinolin-5-one]	0.101 to 0.5
Cn1c(-c2cc3ccc(C4CC4)nc3n2CC2CC2)nc2cc3c(cc21)CCN(C[C@H](N)CF)C3=O [Example 59, (S)-6-(2-amino-3-fluoropropyl)-2-(6-cyclopropyl-1-(cyclopropylmethyl)-1H-pyrrolo[2,3-b]pyridin-2-yl)-1-methyl-1,6,7,8-tetrahydro-5H-imidazo[4,5-g]isoquinolin-5-one]	0.101 to 0.5
